{"source": "patent US20170027967A1", "about": "“PHARMACEUTICAL FORMULATIONS” (priority 2015, published 2017)", "details": "40° C./75% RH open, 60° C. closed", "note": "Read-outs that look alike come from different tables or passages of the source.", "method": "Studies were conducted to assess the stability of tenofovir alafenamide hemifumarate in the presence of (a) emtricitabine, and (b) emtricitabine and rilpivirine HCl.", "data": [{"smiles": "CC(C)OC(=O)[C@H](C)N[P@](=O)(CO[C@H](C)Cn1cnc2c(N)ncnc21)Oc1ccccc1", "note": "[tenofovir alafenamide hemifumarate]", "values": [{"measurement": "rate of degradation of tenofovir alafenamide hemifumarate", "setting": "in the presence of both emtricitabine and rilpivirine HCl", "value": "further increased"}, {"measurement": "rate of degradation of tenofovir alafenamide hemifumarate", "setting": "in the presence of emtricitabine", "value": "increased"}]}]}
